Assay results published in patent US9211310B2, “Use of a Chinese medicine composition in preparing medicaments for treating secondary prevention of myocardial infarction” (TASLY PHARMACEUTICAL GROUP CO., LTD, priority 2010, dated 2015).

Test system: patients after acute myocardial infarction
Test: Life quality, Seattle Angina Questionnaire (SAQ), same clinical trial
Assay type: in vivo, human
Conditions: FAS
Source text: 3508 patients who were in accordance with the diagnostic standards of AMI for 28 days to 2 years and differentiated as Qi deficiency and blood stagnation syndrome by TCM were studied. 0.5 g Chinese medicine composition prepared by the method of EXAMPLE 1 (Coded as QSYQ) was administrated half an hour after meal, 3 times per day.
There were 19 questions in the Seattle angina questionnaire (SAQ), including 5 parts: physical limitation (PL), anginal stability (AS), anginal frequency (AF), treatment satisfaction (TS) and disease perception (DP). After being given necessary explanation by doctors, the questions were answered independently by patients.
They included the overall survival time, angina pectoris score, TCM symptom score and life quality score, where angina pectoris score, TCM symptom score and life quality score were evaluated at randomization, in 1st, 3rd, 6th, 9th, 12th month after treatment and 18th month after follow-up.
All evaluation results of SAQ were described during the period of observation, and Wilcoxon rank sum test was used for inter-group comparison.
The evaluation results in the SAQ were depicted in different observations, and inter-group comparison was tested by Wilcoxon Rank-sum test.

Structure (SMILES): CC(=O)Oc1ccccc1C(=O)O [Control group, aspirine]
- SAQ 5th question, ≧4 times per day: % of patients (12 months after treatment): (0.80%)
- SAQ 5th question, ≧4 times per day: number of patients (12 months after treatment): 14
- SAQ 6th question, Dissatisfied: % of patients (12 months after treatment): (0.29%)
- SAQ 6th question, Dissatisfied: number of patients (12 months after treatment): 5
- SAQ 6th question, Highly satisfied: % of patients (12 months after treatment): (25.86%)
- SAQ 6th question, Highly satisfied: number of patients (12 months after treatment): 451
- SAQ 6th question, Mostly dissatisfied: % of patients (12 months after treatment): (1.55%)
- SAQ 6th question, Mostly dissatisfied: number of patients (12 months after treatment): 27
- SAQ 6th question, Mostly satisfied: % of patients (12 months after treatment): (60.61%)
- SAQ 6th question, Mostly satisfied: number of patients (12 months after treatment): 1057
- SAQ 6th question, Partly satisfied: % of patients (12 months after treatment): (11.70%)
- SAQ 6th question, Partly satisfied: number of patients (12 months after treatment): 204
- SAQ 7th question, Dissatisfied: % of patients (12 months after treatment): (0.11%)
- SAQ 7th question, Dissatisfied: number of patients (12 months after treatment): 2
- SAQ 7th question, Highly satisfied: % of patients (12 months after treatment): (29.56%)
- SAQ 7th question, Highly satisfied: number of patients (12 months after treatment): 515
- SAQ 7th question, Mostly dissatisfied: % of patients (12 months after treatment): (0.75%)
- SAQ 7th question, Mostly dissatisfied: number of patients (12 months after treatment): 13
- SAQ 7th question, Mostly satisfied: % of patients (12 months after treatment): (59.82%)
- SAQ 7th question, Mostly satisfied: number of patients (12 months after treatment): 1042
- SAQ 7th question, Partly satisfied: % of patients (12 months after treatment): (9.76%)
- SAQ 7th question, Partly satisfied: number of patients (12 months after treatment): 170
- SAQ Question 1-1 Mildly limited, number of patients (12 months after treatment): 15
- SAQ Question 1-1 Mildly limited, percent of patients (12 months after treatment): (0.86%)
- SAQ Question 1-1 Moderately limited, number of patients (12 months after treatment): 4
- SAQ Question 1-1 Moderately limited, percent of patients (12 months after treatment): (0.23%)
- SAQ Question 1-1 Not limited, number of patients (12 months after treatment): 1659
- SAQ Question 1-1 Not limited, percent of patients (12 months after treatment): (95.13%)
- SAQ Question 1-1 Other reasons, number of patients (12 months after treatment): 4
- SAQ Question 1-1 Other reasons, percent of patients (12 months after treatment): (0.23%)
- SAQ Question 1-1 Severely limited, number of patients (12 months after treatment): 1
- SAQ Question 1-1 Severely limited, percent of patients (12 months after treatment): (0.06%)
- SAQ Question 1-1 Slightly limited, number of patients (12 months after treatment): 61
- SAQ Question 1-1 Slightly limited, percent of patients (12 months after treatment): (3.50%)
- SAQ Question 1-2 Mildly limited, number of patients (12 months after treatment): 18
- SAQ Question 1-2 Mildly limited, percent of patients (12 months after treatment): (1.03%)
- SAQ Question 1-2 Moderately limited, number of patients (12 months after treatment): 6
- SAQ Question 1-2 Moderately limited, percent of patients (12 months after treatment): (0.34%)
- SAQ Question 1-2 Not limited, number of patients (12 months after treatment): 1647
- SAQ Question 1-2 Not limited, percent of patients (12 months after treatment): (94.44%)
- SAQ Question 1-2 Other reasons, number of patients (12 months after treatment): 6
- SAQ Question 1-2 Other reasons, percent of patients (12 months after treatment): (0.34%)
- SAQ Question 1-2 Severely limited, number of patients (12 months after treatment): 0
- SAQ Question 1-2 Severely limited, percent of patients (12 months after treatment): (0.00%)
- SAQ Question 1-2 Slightly limited, number of patients (12 months after treatment): 67
- SAQ Question 1-2 Slightly limited, percent of patients (12 months after treatment): (3.84%)
- SAQ Question 1-6: Mildly limited, patients (%) (12 months after treatment): (14.93%)
- SAQ Question 1-6: Moderately limited, patients (%) (12 months after treatment): (9.70%)
- SAQ Question 1-6: Not limited, patients (%) (12 months after treatment): (40.47%)
- SAQ Question 1-6: Other reasons, patients (%) (12 months after treatment): (0.86%)
- SAQ Question 1-6: Severely limited, patients (%) (12 months after treatment): (2.58%)
- SAQ Question 1-6: Slightly limited, patients (%) (12 months after treatment): (31.46%)
- SAQ Question 1-7: Mildly limited, patients (%) (12 months after treatment): (20.46%)
- SAQ Question 1-7: Moderately limited, patients (%) (12 months after treatment): (11.10%)
- SAQ Question 1-7: Not limited, patients (%) (12 months after treatment): (20.46%)
- SAQ Question 1-7: Other limited, patients (%) (12 months after treatment): (3.29%)
- SAQ Question 1-7: Severely limited, patients (%) (12 months after treatment): (12.95%)
- SAQ Question 1-7: Slightly limited, patients (%) (12 months after treatment): (31.73%)
- SAQ Question 1-8: Mildly limited, patients (%) (12 months after treatment): (24.72%)
- SAQ Question 1-8: Moderately limited, patients (%) (12 months after treatment): (13.35%)
- SAQ Question 1-8: Not limited, patients (%) (12 months after treatment): (13.64%)
- SAQ Question 1-8: Other reasons, patients (%) (12 months after treatment): (3.95%)
- SAQ Question 1-8: Severely limited, patients (%) (12 months after treatment): (16.89%)
- SAQ Question 1-8: Slightly limited, patients (%) (12 months after treatment): (27.45%)
- 8th question: Dissatisfied, patients (%) (Baseline): (0.92%)
- 8th question: Highly satisfied, patients (%) (Baseline): (15.62%)
- 8th question: Mostly dissatisfied, patients (%) (Baseline): (6.55%)
- 8th question: Mostly satisfied, patients (%) (Baseline): (46.01%)
- 8th question: Partly satisfied, patients (%) (Baseline): (30.90%)
- 9th question: Few, patients (%) (Baseline): (21.02%)
- 9th question: Mild, patients (%) (Baseline): (36.70%)
- 9th question: Moderate, patients (%) (Baseline): (26.88%)
- 9th question: Severe, patients (%) (Baseline): (3.62%)
- 9th question: Uneffective, patients (%) (Baseline): (11.77%)
- 10th question: Dissatisfied, patients (%) (Baseline): (25.90%)
- 10th question: Highly satisfied, patients (%) (Baseline): (2.30%)
- 10th question: Mostly dissatisfied, patients (%) (Baseline): (23.72%)
